Assay results reported in patent publication US7569567B2, “3-Heteroaryl-3,5-dihydro-4-oxo-4H-pyridazino[4,5-B]indole-1-carboxamide derivatives, their preparation and therapeutic use” (sanofi-aventis, priority 2001, dated 2009).

SMILES | melting point [°C]
Cl.Cn1c2cc(Cl)ccc2c2c(C(=O)N3CCCC3)nn(-c3cccnc3)c(=O)c21 | 232 to 234
CN1CCN(C(=O)c2nn(-c3cccnc3)c(=O)c3c2c2ccc(Cl)cc2n3C)CC1.Cl | 267 to 268
CN1CCN(C(=O)c2nn(-c3cccnc3)c(=O)c3c2c2ccc(F)cc2n3C)CC1.Cl | 269 to 273
CN(C)C(=O)c1nn(-c2ccccn2)c(=O)c2c1c1ccc(F)cc1n2C [Compound 1, 7-fluoro-N,N,5-trimethyl-4-oxo-3-(pyridin-2-yl)-3,5-dihydro-4H-pyridazino[4,5-b]indole-1-carboxamide] | 199 to 200
CN(C)C(=O)c1nn(-c2cccnc2)c(=O)c2c1c1ccc(F)cc1n2C [Compound 2, 7-fluoro-N,N,5-trimethyl-4-oxo-3-(pyridin-3-yl)-3,5-dihydro-4H-pyridazino[4,5-b]indole-1-carboxamide] | 220 to 221
COc1ccc(-n2nc(C(=O)N(C)C)c3c4ccc(F)cc4n(C)c3c2=O)cn1 [Compound 4, 7-fluoro-N,N,5-trimethyl-4-oxo-3-(2-methoxypyridin-5-yl)-3,5-dihydro-4H-pyridazino[4,5-b]indole-1-carboxamide] | 225 to 226
CN(C)C(=O)c1nn(-c2cnc3ccccc3c2)c(=O)c2c1c1ccc(F)cc1n2C [Compound 5, 7-fluoro-N,N,5-trimethyl-4-oxo-3-(quinolin-3-yl)-3,5-dihydro-4H-pyridazino[4,5-b]indole-1-carboxamide] | 237 to 238
Cn1c2cc(F)ccc2c2c(C(=O)N3CCCC3)nn(-c3ncccn3)c(=O)c21 [Compound 6, 1-[[7-fluoro-5-methyl-3-(pyrimidin-2-yl)-4-oxo-3,5-dihydro-4H-pyridazino[4,5-b]indol-1-yl]carbonyl]-pyrrolidine] | 238 to 239
Cn1c2cc(F)ccc2c2c(C(=O)N3CCCC3)nn(-c3cccnc3)c(=O)c21 [Compound 8, 1-[[7-fluoro-5-methyl-3-(pyridin-3-yl)-4-oxo-3,5-dihydro-4H-pyridazino[4,5-b]indol-1-yl]carbonyl]-pyrrolidine] | 220 to 221
Cn1c2cc(F)ccc2c2c(C(N)=O)nn(-c3cccnc3)c(=O)c21 [Compound 10, 7-fluoro-5-methyl-4-oxo-3-(pyridin-3-yl)-3,5-dihydro-4H-pyridazino[4,5-b]indole-1-carboxamide] | 319 to 320
CN(C)C(=O)c1nn(-c2ccccn2)c(=O)c2c1c1ccc(Cl)cc1n2C [Compound 11, 7-chloro-N,N,5-trimethyl-4-oxo-3-(pyridin-2-yl)-3,5-dihydro-4H-pyridazino[4,5-b]indole-1-carboxamide] | 210 to 211
CN(C)C(=O)c1nn(-c2ccncc2)c(=O)c2c1c1ccc(Cl)cc1n2C [Compound 13, 7-chloro-N,N,5-trimethyl-4-oxo-3-(pyridin-4-yl)-3,5-dihydro-4H-pyridazino[4,5-b]indole-1-carboxamide] | 276 to 278
Cc1ccc(-n2nc(C(=O)N(C)C)c3c4ccc(Cl)cc4n(C)c3c2=O)cn1 [Compound 17, 7-chloro-N,N,5-trimethyl-4-oxo-3-(2-methylpyridin-5-yl)-3,5-dihydro-4H-pyridazino[4,5-b]indole-1-carboxamide] | 214 to 216
CN(C)C(=O)c1nn(-c2cncc3ccccc23)c(=O)c2c1c1ccc(Cl)cc1n2C [Compound 20, 7-chloro-N,N,5-trimethyl-4-oxo-3-(isoquinolin-4-yl)-3,5-dihydro-4H-pyridazino[4,5-b]indole-1-carboxamide] | 189 to 191
Cc1ccc(-n2nc(C(=O)N(C)C)c3c4ccc(Cl)cc4n(C)c3c2=O)nn1 [Compound 21, 7-chloro-N,N,5-trimethyl-4-oxo-3-(6-methyl-pyridazin-3-yl)-3,5-dihydro-4H-pyridazino[4,5-b]indole-1-carboxamide] | 238 to 239
CN(C)C(=O)c1nn(-c2cncnc2)c(=O)c2c1c1ccc(Cl)cc1n2C [Compound 22, 7-chloro-N,N,5-trimethyl-4-oxo-3-(pyrimidin-5-yl)-3,5-dihydro-4H-pyridazino[4,5-b]indole-1-carboxamide] | 251 to 252
CN(C)C(=O)c1nn(-c2ncccn2)c(=O)c2c1c1ccc(Cl)cc1n2C [Compound 23, 7-chloro-N,N,5-trimethyl-4-oxo-3-(pyrimidin-2-yl)-3,5-dihydro-4H-pyridazino[4,5-b]indole-1-carboxamide] | 272 to 274
Cn1c2cc(Cl)ccc2c2c(C(=O)N3CCCCC3)nn(-c3ccncc3)c(=O)c21 [Compound 34, 1-[[7-chloro-5-methyl-3-(pyridin-4-yl)-4-oxo-3,5-dihydro-4H-pyridazino[4,5-b]indol-1-yl]carbonyl]-piperidine] | 242 to 243
Cc1cc(-n2nc(C(=O)N(C)C)c3c4ccc(Cl)cc4n(C)c3c2=O)ccn1 [Compound 35, 7-chloro-N,N,5-trimethyl-4-oxo-3-(2-methylpyridin-4-yl)-3,5-dihydro-4H-pyridazino[4,5-b]indole-1-carboxamide] | 267 to 269
Cc1cc(-n2nc(C(=O)N3CCCC3)c3c4ccc(Cl)cc4n(C)c3c2=O)ccn1 [Compound 36, 1-[[7-chloro-5-methyl-3-(2-methylpyridin-4-yl)-4-oxo-3,5-dihydro-4H-pyridazino[4,5-b]indol-1-yl]carbonyl]pyrrolidine] | 246 to 247
COc1cc(-n2nc(C(=O)N(C)C)c3c4ccc(Cl)cc4n(C)c3c2=O)ccn1 [Compound 38, 7-chloro-3-(2-methoxypyridin-4-yl)-N,N,5-trimethyl-4-oxo-3,5-dihydro-4H-pyridazino[4,5-b]indole-1-carboxamide] | 237 to 238

The next lines start with the values.

melting point [°C] | SMILES
228 to 230 | CN(C)C(=O)c1nn(-c2cccnc2)c(=O)c2c1c1ccc(Cl)cc1n2C.Cl
263 to 265 | CN(C)C(=O)c1nn(-c2ccncc2)c(=O)c2c1c1ccc(Cl)cc1n2C.Cl
266 to 271 | CN(C)C(=O)c1nn(-c2ccncc2)c(=O)c2c1c1ccc(F)cc1n2C.Cl
270 to 272 | CNC(=O)c1nn(-c2cccnc2)c(=O)c2c1c1ccc(F)cc1n2C [Compound 9, 7-fluoro-N,5-dimethyl-4-oxo-3-(pyridin-3-yl)-3,5-dihydro-4H-pyridazino[4,5-b]indole-1-carboxamide]
222 to 224 | Cc1ccc(-n2nc(C(=O)N(C)C)c3c4ccc(Cl)cc4n(C)c3c2=O)nc1 [Compound 15, 7-chloro-N,N,5-trimethyl-4-oxo-3-(5-methylpyridin-2-yl)-3,5-dihydro-4H-pyridazino[4,5-b]indole-1-carboxamide]
236 to 237 | COc1ccc(-n2nc(C(=O)N(C)C)c3c4ccc(Cl)cc4n(C)c3c2=O)cn1 [Compound 16, 7-chloro-N,N,5-trimethyl-4-oxo-3-(2-methoxypyridin-5-yl)-3,5-dihydro-4H-pyridazino[4,5-b]indole-1-carboxamide]
250 to 252 | CN(C)C(=O)c1nn(-c2ccc(Br)nc2)c(=O)c2c1c1ccc(Cl)cc1n2C [Compound 18, 7-chloro-N,N,5-trimethyl-4-oxo-3-(2-bromopyridin-5-yl)-3,5-dihydro-4H-pyridazino[4,5-b]indole-1-carboxamide]
271 to 272 | CN(C)C(=O)c1nn(-c2cnc3ccccc3c2)c(=O)c2c1c1ccc(Cl)cc1n2C [Compound 19, 7-chloro-N,N,5-trimethyl-4-oxo-3-(quinolin-3-yl)-3,5-dihydro-4H-pyridazino[4,5-b]indole-1-carboxamide]
231 to 232 | CN(C)C(=O)c1nn(-c2cnccn2)c(=O)c2c1c1ccc(Cl)cc1n2C [Compound 24, 7-chloro-N,N,5-trimethyl-4-oxo-3-(pyrazin-2-yl)-3,5-dihydro-4H-pyridazino[4,5-b]indole-1-carboxamide]
236 to 237 | Cn1c2cc(Cl)ccc2c2c(C(=O)N3CCCC3)nn(-c3ccncc3)c(=O)c21 [Compound 27, 1-[[7-chloro-5-methyl-3-(pyridin-4-yl)-4-oxo-3,5-dihydro-4H-pyridazino[4,5-b]indol-1-yl]carbonyl]-pyrrolidine]
321 to 323 | CNC(=O)c1nn(-c2ccncc2)c(=O)c2c1c1ccc(Cl)cc1n2C [Compound 28, 7-chloro-N,5-dimethyl-4-oxo-3-(pyridin-4-yl)-3,5-dihydro-4H-pyridazino[4,5-b]indole-1-carboxamide]
341 to 346 | Cn1c2cc(Cl)ccc2c2c(C(N)=O)nn(-c3ccncc3)c(=O)c21 [Compound 29, 7-chloro-5-methyl-4-oxo-3-(pyridin-4-yl)-3,5-dihydro-4H-pyridazino[4,5-b]indole-1-carboxamide]
243 to 244 | COc1ccnc(-n2nc(C(=O)N(C)C)c3c4ccc(Cl)cc4n(C)c3c2=O)c1 [Compound 30, 7-chloro-N,N,5-trimethyl-4-oxo-3-(4-methoxypyridin-2-yl)-3,5-dihydro-4H-pyridazino[4,5-b]indole-1-carboxamide]
211 to 213 | CCN(C)C(=O)c1nn(-c2ccncc2)c(=O)c2c1c1ccc(Cl)cc1n2C [Compound 33, 7-chloro-N-ethyl-N,5-dimethyl-4-oxo-3-(pyridin-4-yl)-3,5-dihydro-4H-pyridazino[4,5-b]indole-1-carboxamide]
301 to 304 | CN(C)C(=O)c1nn(-c2cc[n+]([O-])cc2)c(=O)c2c1c1ccc(Cl)cc1n2C [Compound 37, 7-chloro-N,N,5-trimethyl-3-(1-oxidopyridin-4-yl)-4-oxo-3,5-dihydro-4H-pyridazino[4,5-b]indole-1-carboxamide]
